Assay results taken from ChEMBL document CHEMBL4261501, “Design, synthesis and biological evaluation of imidazopyridine-propenone conjugates as potent tubulin inhibitors” (Medchemcomm, 2017).
Calls of active or inactive are those of the source. The calls are words filed in the database; no cut-off is given here.

How the values were obtained:
[1] = system: A549; assay: cells; conditions: Homo sapiens, A549, 48 h
Description: Cytotoxicity against human A549 cells after 48 hrs by MTT assay

[2] = system: DU-145; assay: Cytotoxicity against human DU145 cells after 48 hrs by MTT assay; assay type: functional, cell-based; conditions: DU-145, 48 h
[3] = system: HeLa; assay: cells; conditions: Homo sapiens, 48 h
Description: Cytotoxicity against human HeLa cells after 48 hrs by MTT assay

[4] = system: MCF7; assay: cells; conditions: Homo sapiens, MCF7, 48 h
Description: Cytotoxicity against human MCF7 cells after 48 hrs by MTT assay

[5] = system: A549; assay: Cell cycle arrest in human A549 cells assessed as accumulation at G0/G1 phase at 1 uM after 48 hrs by propidium iodide staining based flow cytometry (reference value: 90.52%); assay type: functional
[6] = system: A549; assay: Cell cycle arrest in human A549 cells assessed as accumulation at S phase at 0.5 uM after 48 hrs by propidium iodide staining based flow cytometry (reference value: 1.92%); assay type: functional
[7] = system: A549; assay: Induction of mitochondrial membrane potential loss in human A549 cells assessed as collapse of the mitochondrial membrane potential at 1 uM after 48 hrs by JC1 staining based flow cytomtery (reference value: 3.5%); assay type: functional
[8] = system: A549; assay: Cell cycle arrest in human A549 cells assessed as accumulation at G2/M phase at 0.5 uM after 48 hrs by propidium iodide staining based flow cytometry (reference value: 7.4%); assay type: functional
[9] = system: A549; assay: Induction of mitochondrial membrane potential loss in human A549 cells assessed as collapse of the mitochondrial membrane potential at 0.5 uM after 48 hrs by JC1 staining based flow cytomtery (reference value: 3.5%); assay type: functional
[10] = system: A549; assay: Cell cycle arrest in human A549 cells assessed as accumulation at sub-G1 phase at 0.5 uM after 48 hrs by propidium iodide staining based flow cytometry (reference value: 1.11%); assay type: functional
[11] = system: A549; assay: Induction of apoptosis in human A549 cells assessed as late apoptotic cells at 1 uM after 48 hrs by Annexin V-FITC/propidium iodide staining based flow cytometry (reference value: 3.83%); assay type: functional
[12] = system: A549; assay: Induction of apoptosis in human A549 cells assessed as formation of apoptotic bodies at 0.5 uM after 48 hrs by Hoechst 33258 staining based fluorescence microscopic analysis; assay type: functional, cell-based
[13] = system: A549; assay: Induction of apoptosis in human A549 cells assessed as live cells at 1 uM after 48 hrs by Annexin V-FITC/propidium iodide staining based flow cytometry (reference value: 93.97%); assay type: functional
[14] = system: A549; assay: Disruption of microtubule organization in human A549 cells at 0.5 uM after 48 hrs by fluorescence microscopic analysis; assay type: cell-based
[15] = system: A549; assay: Induction of apoptosis in human A549 cells assessed as late apoptotic cells at 0.5 uM after 48 hrs by Annexin V-FITC/propidium iodide staining based flow cytometry (reference value: 3.83%); assay type: functional
[16] = molecular target: Tubulin; assay: Inhibition of tubulin polymerization (unknown origin) after 1 hr by fluorescence assay; assay type: protein-complex assay, Homo sapiens
[17] = system: A549; assay: Induction of apoptosis in human A549 cells assessed as early apoptotic cells at 0.5 uM after 48 hrs by Annexin V-FITC/propidium iodide staining based flow cytometry (reference value: 1.03%); assay type: functional
[18] = system: A549; assay: Induction of apoptosis in human A549 cells assessed as necrotic cells at 1 uM after 48 hrs by Annexin V-FITC/propidium iodide staining based flow cytometry (reference value: 1.17%); assay type: functional
[19] = system: A549; assay: Induction of apoptosis in human A549 cells assessed as nuclear fragmentation at 0.5 uM after 48 hrs by Hoechst 33258 staining based fluorescence microscopic analysis; assay type: functional, cell-based
[20] = molecular target: Tubulin (Homo sapiens) (UniProt P68371+Q9H4B7+P0DPH7+P68366+Q13509+Q71U36+P04350+Q3ZCM7+P07437+P68363+Q9BQE3+Q6PEY2+Q13885+Q9BVA1+Q9BUF5); assay: Inhibition of tubulin polymerization (unknown origin) at 3 uM after 1 hr by fluorescence assay relative to control; assay type: protein-complex assay
[21] = system: A549; assay: Cell cycle arrest in human A549 cells assessed as accumulation at S phase at 1 uM after 48 hrs by propidium iodide staining based flow cytometry (reference value: 1.92%); assay type: functional
[22] = system: A549; assay: Induction of apoptosis in human A549 cells assessed as live cells at 0.5 uM after 48 hrs by Annexin V-FITC/propidium iodide staining based flow cytometry (reference value: 93.97%); assay type: functional
[23] = system: A549; assay: Induction of mitochondrial membrane potential loss in human A549 cells assessed as intact mitochondrial membrane at 1 uM after 48 hrs by JC1 staining based flow cytomtery (reference value: 96.3%); assay type: functional
[24] = system: A549; assay: Cell cycle arrest in human A549 cells assessed as accumulation at G2/M phase at 1 uM after 48 hrs by propidium iodide staining based flow cytometry (reference value: 7.4%); assay type: functional
[25] = system: A549; assay: Induction of mitochondrial membrane potential loss in human A549 cells assessed as intact mitochondrial membrane at 0.5 uM after 48 hrs by JC1 staining based flow cytomtery (reference value: 96.3%); assay type: functional
[26] = system: A549; assay: Cell cycle arrest in human A549 cells assessed as accumulation at sub-G1 phase at 1 uM after 48 hrs by propidium iodide staining based flow cytometry (reference value: 1.11%); assay type: functional
[27] = system: A549; assay: Induction of apoptosis in human A549 cells assessed as early apoptotic cells at 1 uM after 48 hrs by Annexin V-FITC/propidium iodide staining based flow cytometry (reference value: 1.03%); assay type: functional
[28] = system: A549; assay: Induction of apoptosis in human A549 cells assessed as cytoplasmic condensation at 0.5 uM after 48 hrs by Hoechst 33258 staining based fluorescence microscopic analysis; assay type: functional, cell-based
[29] = system: A549; assay: Cell cycle arrest in human A549 cells assessed as accumulation at G0/G1 phase at 0.5 uM after 48 hrs by propidium iodide staining based flow cytometry (reference value: 90.52%); assay type: functional
[30] = system: A549; assay: Induction of apoptosis in human A549 cells assessed as necrotic cells at 0.5 uM after 48 hrs by Annexin V-FITC/propidium iodide staining based flow cytometry (reference value: 1.17%); assay type: functional

O=C(/C=C\Nc1ccc(Br)cc1)c1c(-c2ccccc2)nc2ccccn12
IC50 [1]: 1.35 µM | IC50 [2]: 1.82 µM | IC50 [3]: 2.04 µM | IC50 [4]: 8.67 µM

COc1ccc(-c2nc3ccccn3c2C(=O)/C=C\Nc2ccc3[nH]ccc3c2)cc1
IC50 [1]: 11 µM | IC50 [2]: 11.3 µM | IC50 [3]: 13.6 µM | IC50 [4]: 18.9 µM

COc1ccc(-c2nc3ccccn3c2C(=O)/C=C\Nc2ccc3ncccc3c2)cc1
IC50 [1]: 1.21 µM | IC50 [2]: 4.72 µM | IC50 [3]: 4.85 µM | IC50 [4]: 11.6 µM

COc1ccc(-c2nc3ccccn3c2C(=O)/C=C\Nc2cnc3ccccc3c2)cc1
IC50 [1]: 1.05 µM | IC50 [2]: 5.28 µM | IC50 [3]: 9.44 µM | IC50 [4]: 15 µM

O=C(/C=C\Nc1cnc2ccccc2c1)c1c(-c2ccccc2)nc2ccccn12
IC50 [1]: 1.75 µM | IC50 [2]: 2.44 µM | IC50 [3]: 3.08 µM | IC50 [4]: 5.17 µM

COc1cc(N/C=C\C(=O)c2c(-c3ccccc3)nc3ccccn23)cc(OC)c1
IC50 [1]: 2.24 µM | IC50 [2]: 2.92 µM | IC50 [3]: 3.09 µM | IC50 [4]: 10.2 µM

COc1ccc(-c2nc3ccccn3c2C(=O)/C=C\Nc2ccc(Br)cc2)cc1
IC50 [1]: 1.35 µM | IC50 [2]: 1.45 µM | IC50 [3]: 4.54 µM | IC50 [4]: 9.83 µM

COc1ccc(-c2nc3ccccn3c2C(=O)/C=C\Nc2ccc(F)cc2)cc1
IC50 [1]: 3.25 µM | IC50 [2]: 6.13 µM | IC50 [3]: 11 µM | IC50 [4]: 13 µM

O=C(/C=C\Nc1ccc2ncccc2c1)c1c(-c2ccccc2)nc2ccccn12
Activity [5]: 66.32% | Activity [6]: 2.77% | Activity [7]: 31.7% | Activity [8]: 15.69% | Activity [9]: 22.5% | IC50 [1]: 0.861 µM | Activity [10]: 0.5% | IC50 [2]: 1.08 µM | Activity [11]: 18.5 - 18.52% | Activity [12]: Active | Activity [13]: 45.4 - 45.42% | Activity [14]: Active | IC50 [3]: 1.22 µM | IC50 [4]: 1.81 µM | Activity [15]: 11.35 - 11.4% | IC50 [16]: 1.82 µM | Activity [17]: 22.9 - 22.92% | Activity [18]: 1.07 - 1.1% | Activity [19]: Active | inhibition [20]: 68.2% | Activity [21]: 4.28% | Activity [22]: 64.98 - 65% | Activity [23]: 60.8% | Activity [24]: 30.5% | Activity [25]: 73.5% | Activity [26]: 0.91% | Activity [27]: 34.99 - 35% | Activity [28]: Active | Activity [29]: 82.37% | Activity [30]: 0.75 - 0.8%

COc1ccc(-c2nc3ccccn3c2C(=O)/C=C\Nc2cc(OC)cc(OC)c2)cc1
IC50 [1]: 4.47 µM | IC50 [2]: 6.26 µM | IC50 [3]: 4.57 µM | IC50 [4]: 14.9 µM

O=C(/C=C\Nc1cnc2ccccc2c1)c1c(-c2ccc(Cl)cc2)nc2ccccn12
IC50 [1]: 2.88 µM | IC50 [2]: 4.17 µM | IC50 [3]: 3.71 µM | IC50 [4]: 18.9 µM

COc1ccc(N/C=C\C(=O)c2c(-c3ccc(Cl)cc3)nc3ccccn23)cc1
IC50 [1]: 6.46 µM | IC50 [2]: 10.8 µM | IC50 [3]: 11.8 µM | IC50 [4]: 16.3 µM

COc1ccc(N/C=C\C(=O)c2c(-c3ccc(OC)cc3)nc3ccccn23)cc1
IC50 [1]: 12.7 µM | IC50 [2]: 11.1 µM | IC50 [3]: 19.9 µM | IC50 [4]: 16.5 µM

O=C(/C=C\Nc1ccc2cc[nH]c2c1)c1c(-c2ccc(Cl)cc2)nc2ccccn12
IC50 [1]: 2.29 µM | IC50 [2]: 2.63 µM | IC50 [3]: 10.9 µM | IC50 [4]: 9.6 µM

COC(=O)Nc1nc2cc(C(=O)c3cccs3)ccc2[nH]1 [NOCODAZOLE]
Activity [5]: 66.92% | Activity [7]: 22.6% | IC50 [1]: 1.39 µM | IC50 [2]: 1.26 µM | Activity [11]: 16.2 - 16.23% | Activity [13]: 51.48 - 51.5% | Activity [14]: Active | IC50 [3]: 1.61 µM | IC50 [4]: 1.09 µM | Activity [18]: 1.1 - 1.11% | inhibition [20]: 66.8% | Activity [21]: 4.55% | Activity [23]: 73.5% | Activity [24]: 29.68% | Activity [26]: 0.79% | Activity [27]: 31.19 - 31.2%

COc1cc(N/C=C\C(=O)c2c(-c3ccc(Cl)cc3)nc3ccccn23)cc(OC)c1
IC50 [1]: 9.9 µM | IC50 [2]: 12 µM | IC50 [3]: 14.6 µM | IC50 [4]: 13.6 µM

O=C(/C=C\Nc1ccc2ncccc2c1)c1c(-c2ccc(Cl)cc2)nc2ccccn12
IC50 [1]: 13 µM | IC50 [2]: 13.6 µM | IC50 [3]: 16.4 µM | IC50 [4]: 22.8 µM

COc1ccc(-c2nc3ccccn3c2C(=O)/C=C\Nc2ccc3cc[nH]c3c2)cc1
IC50 [1]: 8.8 µM | IC50 [2]: 10.7 µM | IC50 [3]: 15.3 µM | IC50 [4]: 19.4 µM

COc1ccc(N/C=C\C(=O)c2c(-c3ccccc3)nc3ccccn23)cc1
IC50 [1]: 1.57 µM | IC50 [2]: 2.19 µM | IC50 [3]: 14.9 µM | IC50 [4]: 7.61 µM

COc1cc(N/C=C\C(=O)c2c(-c3ccc(Cl)cc3)nc3ccccn23)cc(OC)c1OC
IC50 [1]: 1.14 µM | IC50 [2]: 3.25 µM | IC50 [3]: 3.02 µM | IC50 [4]: 3.39 µM

O=C(/C=C\Nc1ccc2[nH]ccc2c1)c1c(-c2ccc(Cl)cc2)nc2ccccn12
IC50 [1]: 1.01 µM | IC50 [2]: 1.29 µM | IC50 [3]: 3.24 µM | IC50 [4]: 7.12 µM
